Laboratory results reported in patent US8703961B2, “Thiazole derivatives for the treatment of diseases such as cancer” (Merck Patent GmbH, priority 2009, dated 2014).

Columns and labels:
Experiment in all cases: filter binding kinase assay
Type in all cases: biochemical
Details in all cases: derived from % inhibition at 1 μM
MAPKAPK5 = target: T1, MAPKAPK5 (Homo sapiens, UniProt Q8IW41)
T1 construct: purchased
T1 sequence (Q8IW41 1-473): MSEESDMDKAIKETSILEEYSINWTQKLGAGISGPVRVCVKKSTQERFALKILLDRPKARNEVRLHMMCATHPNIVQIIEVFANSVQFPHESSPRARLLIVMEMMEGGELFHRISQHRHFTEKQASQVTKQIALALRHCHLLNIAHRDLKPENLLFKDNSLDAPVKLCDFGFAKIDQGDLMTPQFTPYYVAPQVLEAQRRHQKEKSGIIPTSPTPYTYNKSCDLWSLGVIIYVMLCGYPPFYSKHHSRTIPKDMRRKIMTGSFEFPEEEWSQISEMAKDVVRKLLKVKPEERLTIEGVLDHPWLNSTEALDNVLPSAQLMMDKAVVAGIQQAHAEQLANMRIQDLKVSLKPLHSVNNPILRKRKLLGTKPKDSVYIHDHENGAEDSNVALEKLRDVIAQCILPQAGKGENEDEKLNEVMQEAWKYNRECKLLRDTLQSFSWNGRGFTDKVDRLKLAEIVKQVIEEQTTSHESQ
Procedure, shortened: (§1)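 Compound was pre-incubated with enzyme and substrate for 5 minutes at room temperature, then the reaction was started with ATP (added solution at 5, 20 or 50 […] depending on kinase). Orthophosphoric acid stopped it, and phosphorylated substrate captured on P81 filters was quantified by scintillation counting.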

MAPK9 = target: T2, MAPK9 (Homo sapiens, UniProt P45984)
T2 construct: purchased
T2 sequence (P45984 whole entry, species assumed): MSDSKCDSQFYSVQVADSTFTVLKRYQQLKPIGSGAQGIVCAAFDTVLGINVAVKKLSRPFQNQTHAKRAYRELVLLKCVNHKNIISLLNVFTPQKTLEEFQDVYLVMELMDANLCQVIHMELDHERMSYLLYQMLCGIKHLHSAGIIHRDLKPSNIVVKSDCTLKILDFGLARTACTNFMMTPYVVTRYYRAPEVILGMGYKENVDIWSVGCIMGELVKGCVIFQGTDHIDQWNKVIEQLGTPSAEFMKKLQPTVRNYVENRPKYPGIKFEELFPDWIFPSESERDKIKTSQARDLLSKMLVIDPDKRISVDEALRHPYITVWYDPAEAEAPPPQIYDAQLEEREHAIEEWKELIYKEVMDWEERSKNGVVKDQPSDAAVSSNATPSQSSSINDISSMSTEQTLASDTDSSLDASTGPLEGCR
Procedure, shortened: as §1

MELK = target: T3, MELK (Homo sapiens, UniProt Q14680)
T3 construct: purchased
T3 sequence (Q14680 whole entry, species assumed): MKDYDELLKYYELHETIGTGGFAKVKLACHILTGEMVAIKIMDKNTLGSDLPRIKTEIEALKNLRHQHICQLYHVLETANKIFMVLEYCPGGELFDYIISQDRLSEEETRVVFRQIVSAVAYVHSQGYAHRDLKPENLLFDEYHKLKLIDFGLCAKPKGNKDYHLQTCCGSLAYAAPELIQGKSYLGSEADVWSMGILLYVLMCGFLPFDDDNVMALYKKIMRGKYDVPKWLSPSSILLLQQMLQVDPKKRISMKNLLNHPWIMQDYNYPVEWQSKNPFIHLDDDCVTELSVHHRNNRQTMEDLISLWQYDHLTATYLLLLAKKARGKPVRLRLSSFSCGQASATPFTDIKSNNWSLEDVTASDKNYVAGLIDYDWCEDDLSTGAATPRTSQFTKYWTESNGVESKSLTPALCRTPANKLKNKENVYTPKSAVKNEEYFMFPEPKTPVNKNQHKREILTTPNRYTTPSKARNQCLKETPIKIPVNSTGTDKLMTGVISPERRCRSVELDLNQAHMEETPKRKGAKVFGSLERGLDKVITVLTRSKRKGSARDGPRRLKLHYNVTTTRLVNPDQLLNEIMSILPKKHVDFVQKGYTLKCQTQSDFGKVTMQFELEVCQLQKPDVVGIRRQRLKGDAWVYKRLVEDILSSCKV
Procedure, shortened: as §1

PLK1 = target: T4, PLK1 (Homo sapiens, UniProt P53350)
T4 construct: purchased
T4 sequence (P53350 whole entry, species assumed): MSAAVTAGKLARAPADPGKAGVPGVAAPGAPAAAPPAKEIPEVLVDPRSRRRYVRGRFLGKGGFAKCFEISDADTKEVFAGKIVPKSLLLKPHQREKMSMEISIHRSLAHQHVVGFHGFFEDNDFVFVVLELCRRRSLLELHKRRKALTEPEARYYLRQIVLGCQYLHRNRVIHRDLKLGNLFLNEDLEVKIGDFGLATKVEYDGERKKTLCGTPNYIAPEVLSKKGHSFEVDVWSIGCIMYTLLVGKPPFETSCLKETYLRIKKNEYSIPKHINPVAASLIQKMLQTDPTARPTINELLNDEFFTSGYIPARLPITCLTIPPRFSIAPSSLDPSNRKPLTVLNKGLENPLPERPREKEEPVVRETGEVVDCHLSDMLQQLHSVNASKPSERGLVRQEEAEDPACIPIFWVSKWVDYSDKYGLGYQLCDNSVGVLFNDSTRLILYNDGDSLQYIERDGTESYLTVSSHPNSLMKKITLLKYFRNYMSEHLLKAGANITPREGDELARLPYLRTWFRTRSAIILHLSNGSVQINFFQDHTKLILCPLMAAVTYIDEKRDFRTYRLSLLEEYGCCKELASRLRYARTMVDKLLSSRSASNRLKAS
Procedure, shortened: as §1

EPHB3 = target: T5, EPHB3 (Homo sapiens, UniProt P54753)
T5 construct: purchased
T5 sequence (P54753 34-998): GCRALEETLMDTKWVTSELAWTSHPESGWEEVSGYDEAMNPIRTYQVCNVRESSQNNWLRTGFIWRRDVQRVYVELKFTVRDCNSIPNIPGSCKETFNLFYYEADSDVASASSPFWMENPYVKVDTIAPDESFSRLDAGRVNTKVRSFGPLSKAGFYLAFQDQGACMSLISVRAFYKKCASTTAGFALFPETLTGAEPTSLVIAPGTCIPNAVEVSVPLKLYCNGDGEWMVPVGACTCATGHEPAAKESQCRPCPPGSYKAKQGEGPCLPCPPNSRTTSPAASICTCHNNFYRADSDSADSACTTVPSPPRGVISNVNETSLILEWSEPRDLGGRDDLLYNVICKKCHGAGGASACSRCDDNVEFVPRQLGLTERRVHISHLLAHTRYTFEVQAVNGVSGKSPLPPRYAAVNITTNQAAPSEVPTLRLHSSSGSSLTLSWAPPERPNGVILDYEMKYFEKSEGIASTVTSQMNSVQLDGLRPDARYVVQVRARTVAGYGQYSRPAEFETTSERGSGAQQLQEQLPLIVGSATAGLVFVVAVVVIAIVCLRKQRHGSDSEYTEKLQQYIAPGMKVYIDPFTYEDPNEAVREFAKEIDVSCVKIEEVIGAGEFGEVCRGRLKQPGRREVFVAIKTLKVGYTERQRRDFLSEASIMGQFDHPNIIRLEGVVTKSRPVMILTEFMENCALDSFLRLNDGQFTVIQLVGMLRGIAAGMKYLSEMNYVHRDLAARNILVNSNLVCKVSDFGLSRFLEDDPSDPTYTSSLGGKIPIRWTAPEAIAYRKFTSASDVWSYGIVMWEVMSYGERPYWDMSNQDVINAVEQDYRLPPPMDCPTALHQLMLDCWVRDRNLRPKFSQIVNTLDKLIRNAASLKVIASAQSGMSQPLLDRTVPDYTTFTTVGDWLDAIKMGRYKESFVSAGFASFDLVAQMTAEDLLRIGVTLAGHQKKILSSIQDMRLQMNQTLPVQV
Procedure, shortened: as §1

PRKCZ = target: T6, PRKCZ (Homo sapiens, UniProt Q05513)
T6 construct: purchased
T6 sequence (Q05513 1-592): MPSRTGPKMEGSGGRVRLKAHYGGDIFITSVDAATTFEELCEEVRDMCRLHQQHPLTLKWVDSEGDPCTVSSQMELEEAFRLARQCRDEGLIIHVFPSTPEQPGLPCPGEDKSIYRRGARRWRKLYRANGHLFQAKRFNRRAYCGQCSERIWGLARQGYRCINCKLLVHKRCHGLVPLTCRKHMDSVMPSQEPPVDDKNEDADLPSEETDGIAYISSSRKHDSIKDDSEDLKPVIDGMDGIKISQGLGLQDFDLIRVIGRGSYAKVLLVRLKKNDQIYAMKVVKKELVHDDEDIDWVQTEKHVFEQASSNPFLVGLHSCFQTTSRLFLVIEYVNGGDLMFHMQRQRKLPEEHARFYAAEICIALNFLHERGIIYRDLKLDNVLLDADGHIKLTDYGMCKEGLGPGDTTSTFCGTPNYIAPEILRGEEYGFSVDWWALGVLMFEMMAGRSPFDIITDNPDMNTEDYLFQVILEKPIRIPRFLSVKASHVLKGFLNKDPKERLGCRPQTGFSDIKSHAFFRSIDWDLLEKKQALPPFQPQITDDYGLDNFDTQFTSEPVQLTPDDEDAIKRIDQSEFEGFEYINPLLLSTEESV
Procedure, shortened: as §1

CHEK2 = target: T7, CHEK2 (Homo sapiens, UniProt O96017)
T7 construct: purchased
T7 sequence (O96017 whole entry, species assumed): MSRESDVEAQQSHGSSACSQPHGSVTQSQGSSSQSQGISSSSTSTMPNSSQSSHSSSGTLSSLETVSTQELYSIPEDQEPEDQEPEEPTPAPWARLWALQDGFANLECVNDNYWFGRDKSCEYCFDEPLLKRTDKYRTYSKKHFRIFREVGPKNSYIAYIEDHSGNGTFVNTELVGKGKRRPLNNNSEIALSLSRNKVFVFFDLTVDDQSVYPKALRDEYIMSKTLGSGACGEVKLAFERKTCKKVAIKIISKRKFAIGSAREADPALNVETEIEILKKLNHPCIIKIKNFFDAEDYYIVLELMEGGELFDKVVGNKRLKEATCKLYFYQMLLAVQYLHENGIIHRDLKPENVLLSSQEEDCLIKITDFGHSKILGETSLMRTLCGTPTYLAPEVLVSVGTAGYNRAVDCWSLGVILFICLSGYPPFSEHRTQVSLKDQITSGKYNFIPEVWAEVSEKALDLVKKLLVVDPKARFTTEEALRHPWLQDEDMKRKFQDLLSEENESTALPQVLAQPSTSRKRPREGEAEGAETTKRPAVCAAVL
Procedure, shortened: as §1

CAMKK2 = target: T8, CAMKK2 (Homo sapiens, UniProt Q96RR4)
T8 construct: purchased
T8 sequence (Q96RR4 whole entry, species assumed): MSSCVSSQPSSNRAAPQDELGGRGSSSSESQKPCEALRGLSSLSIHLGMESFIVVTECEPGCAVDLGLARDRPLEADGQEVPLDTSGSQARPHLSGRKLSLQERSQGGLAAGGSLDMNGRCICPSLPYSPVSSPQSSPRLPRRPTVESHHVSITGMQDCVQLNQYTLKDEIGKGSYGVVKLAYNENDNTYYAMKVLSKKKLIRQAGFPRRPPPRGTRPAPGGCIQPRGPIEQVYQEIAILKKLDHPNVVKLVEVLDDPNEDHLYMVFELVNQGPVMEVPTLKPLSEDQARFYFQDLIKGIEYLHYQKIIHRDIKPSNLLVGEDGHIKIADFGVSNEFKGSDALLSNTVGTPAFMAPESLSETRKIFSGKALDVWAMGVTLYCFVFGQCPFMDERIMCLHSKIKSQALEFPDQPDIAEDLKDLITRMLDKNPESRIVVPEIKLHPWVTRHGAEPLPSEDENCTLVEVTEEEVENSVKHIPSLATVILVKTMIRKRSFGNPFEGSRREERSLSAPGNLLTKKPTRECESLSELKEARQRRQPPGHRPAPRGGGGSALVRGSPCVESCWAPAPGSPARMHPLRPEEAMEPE
Procedure, shortened: as §1

SMILES	IC50 (MAPKAPK5) [µM]	IC50 (MAPK9) [µM]	IC50 (MELK) [µM]	IC50 (PLK1) [µM]	IC50 (EPHB3) [µM]	IC50 (PRKCZ) [µM]	IC50 (CHEK2) [µM]	IC50 (CAMKK2) [µM]
CC(C)(C)OC(=O)Nc1nc(-c2ccncc2)sc1C#CCN1CCOCC1 [Compound A25, tert-butyl[5-(3-morpholin-4-ylprop-1-ynyl)-2-pyridin-4-ylthiazol-4-yl]-carbamate]	> 1	> 1	> 1	> 1	> 1	10 to 100	> 1	> 1
c1ccc(Cc2c[nH]c3ncsc23)cc1 [Compound A7, 6-benzyl-4H-pyrrolo[2,3-d]thiazole]	> 1	10 to 100	1 to 10	> 1	> 1	> 1	> 1	10 to 100
Nc1ncsc1C#Cc1cnc2[nH]ccc2c1 [Compound A22, 5-(1H-pyrrolo[2,3-b]pyridin-5-ylethynyl)thiazol-4-ylamine]	10 to 100	> 1	> 1	1 to 10	10 to 100	> 1	> 1	> 1
Nc1ncsc1C#Cc1cccc(O)c1 [Compound A27, 3-(4-aminothiazol-5-ylethynyl)phenol]	10 to 100	1 to 10	1 to 10	10 to 100	1 to 10	> 1	10 to 100	10 to 100
CC(C)(C)OC(=O)Nc1ncsc1C#CCN1C(=O)c2ccccc2C1=O [Compound A26, tert-butyl{5-[3-(1,3-dioxo-1,3-dihydroisoindol-2-yl)prop-1-ynyl]-thiazol-4-yl}carbamate]	1 to 10	> 1	> 1	> 1	1 to 10	10 to 100	> 1	10 to 100
